Reference: article PMC5430874 (Scientific Reports, 2017)
Changes are numbered by the printed parent chain.

How the values were obtained:
GPR139 E105A3x29 = molecular target: T1, GPR139 E105A3x29 (Homo sapiens, UniProt Q6DWJ6, E105A); assay: Fluo-4 Ca2+-assay, GPR139 mutant E105A; format: cell-based
T1 construct: mGluR5 signal peptide (N); expressed in transfected cells; host or cells: HEK293
T1 sequence (Q6DWJ6 2-353 E105A limits assumed): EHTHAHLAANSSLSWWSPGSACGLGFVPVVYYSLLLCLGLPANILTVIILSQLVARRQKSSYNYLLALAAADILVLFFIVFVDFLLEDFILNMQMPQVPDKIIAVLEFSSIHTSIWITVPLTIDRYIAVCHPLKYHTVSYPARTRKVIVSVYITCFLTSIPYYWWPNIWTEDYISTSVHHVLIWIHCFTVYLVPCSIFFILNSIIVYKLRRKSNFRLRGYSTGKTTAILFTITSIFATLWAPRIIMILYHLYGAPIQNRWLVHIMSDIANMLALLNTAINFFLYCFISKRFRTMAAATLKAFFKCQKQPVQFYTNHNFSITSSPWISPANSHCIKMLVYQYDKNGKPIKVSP
Description: (§1) To study the influence of specific amino acids in the predicted binding pocket on receptor function, the desired mutations were introduced into an N-terminally c-myc-tagged wild type human GPR139 (NM_001002911.3) in the pEGFP-N1 vector (BD Biosciences)[32], [33]. As previously described, these plasmids carry the signal peptide of mGluR5 to promote cell surface expression followed by a c-myc epitope to enable detection of total and surface expression by ELISA, followed by an engineered MluI and NotI site for easy insertion of the receptor of interest. Furthermore, the start-codon in the GPR139 sequence was deleted to ensure c-myc-tagging. […]
(§2) The Ca^2+ measurements were preformed using the Fluo-4 NW Calcium Assay Kit (Invitrogen, Molecular Probes, F36206) as previously described. […] Intracellular calcium changes were recorded as indicated on either a NOVOstar (BMG Labtech) at 37 °C with an excitation filter of 485 nm and an emission filters 520 nm or a FlexStation 3 Benchtop Multi-Mode Microplate Reader (Molecular Devices) at 37 °C with an excitation wavelength of 485 nm and emission of 525 nm.
(§3) All pharmacological data have been analyzed by using Prism 6.0 (GraphPad Software Inc., San Diego). […] Changes in potency (pEC50) and span of myc-GPR139(WT) in comparison to untagged GPR139(WT) was statistically analyzed with a paired t-test and significance was accepted at p < 0.05. […]

GPR139 L87F2x64 = molecular target: T2, GPR139 L87F2x64 (Homo sapiens, UniProt Q6DWJ6, L87F); assay: Fluo-4 Ca2+-assay, GPR139 mutant L87F; format: cell-based
T2 construct: mGluR5 signal peptide (N); expressed in transfected cells; host or cells: HEK293
T2 sequence (Q6DWJ6 2-353 L87F limits assumed): T1 sequence (Q6DWJ6 2-353 E105A limits assumed) with L86F, A104E
Description: as §1, §2, §3

rats = tested on: rats; set-up: method as in PMID 26349500; settings: cited from earlier work

EC50 (GPR139 E105A3x29; E105A mutant) [nM] | Emax (GPR139 E105A3x29; E105A, normalized to buffer (0%) and 8 µM 1a (100%)) [%] | EC50 (GPR139 L87F2x64; L87F mutant) [nM] | Emax (GPR139 L87F2x64; L87F, normalized to buffer (0%) and 8 µM 1a (100%)) [%] | SMILES | spontaneous locomotion activity (rats)
129 | 288 ± 27 | 427 | 97 ± 14 | COc1cc(OC)cc(C(=O)NNC(=O)Nc2cccc3ccccc23)c1 [Compound 1a] | 
 |  |  |  | C[C@@H](NC(=O)CNC(=O)c1cccc(Cl)c1)c1ccccc1 (racemic) [Compound 7c] | decreased spontaneous locomotion activity
